Data from the NIST ThermoML archive (doi:10.1016/j.jct.2010.08.019).

Assay: refractive index (Na D-line) (dimensionless); xn = mol fraction of the nth substance listed
Details: 101 kPa, Liquid, Standard Abbe refractometry

CC(C)CC(C)(C)C [2,2,4-trimethylpentane] + CC(C)O
Details | refractive index
293.15 K, x2 = 0.2501 | 1.41104
293.15 K, x2 = 0.3003 | 1.40906
293.15 K, x2 = 0.3502 | 1.40701
293.15 K, x2 = 0.4004 | 1.40497
293.15 K, x2 = 0.4502 | 1.4029
293.15 K, x2 = 0.5001 | 1.40079
293.15 K, x2 = 0.55 | 1.39865
293.15 K, x2 = 0.5998 | 1.39647
293.15 K, x2 = 0.6502 | 1.39422
293.15 K, x2 = 0.7002 | 1.39194
293.15 K, x2 = 0.7499 | 1.38965
293.15 K, x2 = 0.7999 | 1.38727
293.15 K, x2 = 0.85 | 1.38486
293.15 K, x2 = 0.8999 | 1.38241
293.15 K, x2 = 0.95 | 1.37993
303.15 K, x2 = 0 | 1.41599
303.15 K, x2 = 0.05 | 1.41398
303.15 K, x2 = 0.1 | 1.41198
303.15 K, x2 = 0.1499 | 1.41
303.15 K, x2 = 0.2004 | 1.408
303.15 K, x2 = 0.2497 | 1.40602
303.15 K, x2 = 0.3 | 1.40405
303.15 K, x2 = 0.3499 | 1.40202
303.15 K, x2 = 0.4008 | 1.40001
303.15 K, x2 = 0.4503 | 1.39797
303.15 K, x2 = 0.5 | 1.3959
303.15 K, x2 = 0.5498 | 1.3938
303.15 K, x2 = 0.6001 | 1.39166
303.15 K, x2 = 0.65 | 1.38947
303.15 K, x2 = 0.7001 | 1.38724
303.15 K, x2 = 0.7495 | 1.38498
303.15 K, x2 = 0.7989 | 1.38267
303.15 K, x2 = 0.8499 | 1.3803
303.15 K, x2 = 0.8997 | 1.37788
303.15 K, x2 = 0.95 | 1.37545
313.15 K, x2 = 0 | 1.41092
313.15 K, x2 = 0.0499 | 1.40889
313.15 K, x2 = 0.1001 | 1.40693
313.15 K, x2 = 0.1503 | 1.40494
313.15 K, x2 = 0.2001 | 1.40299
313.15 K, x2 = 0.2499 | 1.40102
313.15 K, x2 = 0.3003 | 1.39906
313.15 K, x2 = 0.3497 | 1.39707
313.15 K, x2 = 0.4 | 1.39507
313.15 K, x2 = 0.4502 | 1.39301
313.15 K, x2 = 0.5005 | 1.39098
313.15 K, x2 = 0.5499 | 1.38891
313.15 K, x2 = 0.6 | 1.38681
313.15 K, x2 = 0.6498 | 1.38469
313.15 K, x2 = 0.6999 | 1.38251
313.15 K, x2 = 0.75 | 1.38031
313.15 K, x2 = 0.7998 | 1.37808
313.15 K, x2 = 0.8498 | 1.37578
313.15 K, x2 = 0.8999 | 1.37345
313.15 K, x2 = 0.9499 | 1.37107
323.15 K, x2 = 0 | 1.40554
323.15 K, x2 = 0.0501 | 1.40351
323.15 K, x2 = 0.1 | 1.40154
323.15 K, x2 = 0.15 | 1.39952
323.15 K, x2 = 0.1998 | 1.39757
323.15 K, x2 = 0.25 | 1.39566
323.15 K, x2 = 0.3 | 1.39368
323.15 K, x2 = 0.35 | 1.39173
323.15 K, x2 = 0.4 | 1.38974
323.15 K, x2 = 0.4499 | 1.38775
323.15 K, x2 = 0.5 | 1.38572
323.15 K, x2 = 0.5501 | 1.38366
323.15 K, x2 = 0.6 | 1.38161
323.15 K, x2 = 0.65 | 1.37953
323.15 K, x2 = 0.7 | 1.37741
323.15 K, x2 = 0.7499 | 1.37522
323.15 K, x2 = 0.7999 | 1.37303
323.15 K, x2 = 0.85 | 1.3708
323.15 K, x2 = 0.9 | 1.36851
323.15 K, x2 = 0.95 | 1.36617

C1CCOCC1 [tetrahydropyran] + CC(C)CC(C)(C)C
Details | refractive index
293.15 K, x1 = 0.0502 | 1.39259
293.15 K, x1 = 0.1 | 1.39359
293.15 K, x1 = 0.1499 | 1.39461
293.15 K, x1 = 0.2 | 1.39567
293.15 K, x1 = 0.25 | 1.39677
293.15 K, x1 = 0.3 | 1.39792
293.15 K, x1 = 0.35 | 1.39911
293.15 K, x1 = 0.4 | 1.40036
293.15 K, x1 = 0.4498 | 1.40167
293.15 K, x1 = 0.5001 | 1.40303
293.15 K, x1 = 0.5501 | 1.40446
293.15 K, x1 = 0.5999 | 1.40595
293.15 K, x1 = 0.6501 | 1.40753
293.15 K, x1 = 0.6999 | 1.40917
293.15 K, x1 = 0.75 | 1.41092
293.15 K, x1 = 0.8 | 1.41274
293.15 K, x1 = 0.8501 | 1.41468
293.15 K, x1 = 0.9 | 1.4167
293.15 K, x1 = 0.95 | 1.41885
293.15 K, x1 = 1 | 1.42109
303.15 K, x1 = 0.0502 | 1.38756
303.15 K, x1 = 0.1 | 1.38853
303.15 K, x1 = 0.1499 | 1.38953
303.15 K, x1 = 0.2 | 1.39057
303.15 K, x1 = 0.25 | 1.39166
303.15 K, x1 = 0.2999 | 1.39279
303.15 K, x1 = 0.3498 | 1.39399
303.15 K, x1 = 0.3998 | 1.39524
303.15 K, x1 = 0.4498 | 1.39654
303.15 K, x1 = 0.5001 | 1.3979
303.15 K, x1 = 0.5501 | 1.39932
303.15 K, x1 = 0.5999 | 1.40081
303.15 K, x1 = 0.6501 | 1.40239
303.15 K, x1 = 0.6999 | 1.40403
303.15 K, x1 = 0.75 | 1.40577
303.15 K, x1 = 0.8 | 1.4076
303.15 K, x1 = 0.8501 | 1.40954
303.15 K, x1 = 0.9 | 1.41158
303.15 K, x1 = 0.95 | 1.41373
303.15 K, x1 = 1 | 1.41599
313.15 K, x1 = 0.0501 | 1.38237
313.15 K, x1 = 0.1002 | 1.38334
313.15 K, x1 = 0.1501 | 1.38433
313.15 K, x1 = 0.1999 | 1.38537
313.15 K, x1 = 0.2501 | 1.38645
313.15 K, x1 = 0.3 | 1.38759
313.15 K, x1 = 0.3499 | 1.38877
313.15 K, x1 = 0.4002 | 1.39001
313.15 K, x1 = 0.4502 | 1.39131
313.15 K, x1 = 0.4999 | 1.39266
313.15 K, x1 = 0.5499 | 1.39409
313.15 K, x1 = 0.6 | 1.39559
313.15 K, x1 = 0.65 | 1.39716
313.15 K, x1 = 0.6998 | 1.39881
313.15 K, x1 = 0.75 | 1.40055
313.15 K, x1 = 0.8001 | 1.40239
313.15 K, x1 = 0.8501 | 1.40432
313.15 K, x1 = 0.9001 | 1.40638
313.15 K, x1 = 0.9498 | 1.40857
313.15 K, x1 = 1 | 1.41092
323.15 K, x1 = 0.0501 | 1.37719
323.15 K, x1 = 0.1002 | 1.37814
323.15 K, x1 = 0.1501 | 1.37913
323.15 K, x1 = 0.1999 | 1.38015
323.15 K, x1 = 0.2501 | 1.38122
323.15 K, x1 = 0.3 | 1.38233
323.15 K, x1 = 0.3499 | 1.38349
323.15 K, x1 = 0.4002 | 1.38471
323.15 K, x1 = 0.45 | 1.38599
323.15 K, x1 = 0.5002 | 1.38733
323.15 K, x1 = 0.55 | 1.38874
323.15 K, x1 = 0.5997 | 1.39022
323.15 K, x1 = 0.65 | 1.39179
323.15 K, x1 = 0.6998 | 1.39343
323.15 K, x1 = 0.75 | 1.39518
323.15 K, x1 = 0.8001 | 1.39701
323.15 K, x1 = 0.8501 | 1.39895
323.15 K, x1 = 0.9002 | 1.40101
323.15 K, x1 = 0.95 | 1.40319
323.15 K, x1 = 1 | 1.40554
